# Literature values as cited in patent publication US6740517B2, “Incubation method for obtaining solid culture of Zang Zhi, solid culture obtained therefrom, processed products and use thereof” (priority 2001, dated 2004).
# What was measured:
# [1] = tested on: mouse with the acute hepatitis induced by CCl4
# [2] = tested on: lymphoma cells of a p-388 mouse
Molecule,GPT in the blood [1],inhibition to the lymphoma cells of a p-388 mouse [2],inhibition to agglutination of blood platelets (blood platelets)
"3,11-dioxo-8,23-dien-26-oic acid",reduce GPT,,
C=C(CC[C@@H](C)[C@H]1CC[C@H]2C3=C(C(=O)C[C@]12C)[C@@]1(C)CCC(=O)[C@@H](C)[C@@H]1CC3=O)C(C)C(=O)O (stereo partly drawn) [Zhankuic acid A],,conspicuous inhibition,conspicuous inhibition
